# Measurements reported in PMC9898036, “VIP152 is a selective CDK9 inhibitor with pre-clinical in vitro and in vivo efficacy in chronic lymphocytic leukemia” (Leukemia, 2022).
# How the values were obtained:
# [1] = test system: C57BL/6 J mice engrafted with Eµ-MTCP1 splenocytes; test: Eµ-MTCP1 adoptive transfer murine CLL model; format: in vivo, mouse; conditions: 12.5mg/kg tail vein injection, every week
# Experimental: All animal studies were carried out under protocols approved by The Ohio State University Institutional Animal Care and Use Committee (IACUC). Previously, 1 × 10^6 splenocytes from Eµ-MTCP1 mice, which recently were described to mimic human CLL, were resuspended in PBS and injected via tail vein into male C57BL/6 J from The Jackson Laboratory. Mice were monitored for development of peripheral disease by flow cytometry, measuring the percentage of CD5^+/CD19^+ cells in peripheral blood. Complete in vivo methods may be found in the supplementary material.
# In vitro systems generally lack the full microenvironment that can lead to tumor cell resistance and survival. Next, we sought to assess the in vivo efficacy of VIP152 to better evaluate its potential clinical utility in patients with CLL. To accomplish this we used a novel transgenic model of CLL (Eµ-MTCP1 model) developed recently by our group that is characterized by CD5^+/CD19^+ and B220^Dim expansion in the blood. Splenocytes from diseased Eµ-MTCP1 mice were serially engrafted via tail vein injection and monitored for leukemia via weekly flow cytometry (Fig. 5A). Mice were randomized to vehicle versus VIP152 at the time blood disease was evident and treated every week until endpoint. […] Mice in the VIP152 treatment group had improved overall survival compared with vehicle with a median survival of 46 days vs 32 days respectively (Fig. 5D – p < 0.005). Following enrollment two mice had reduction in disease that was sustained below 10% for the duration of study and these mice were censored after 100 days upon which treatment was ceased. Two months following treatment cessation these mice succumbed to likely illness with evident splenomegaly. […]
# Transcriptase. cDNA was immediately taken for qPCR using TaqMan Fast Advanced Master Mix using […]
# Upon reaching 80% disease, these mice were euthanized and spleens were harvested. Splenocytes from a single donor were then used for the studies described here. 1 x 10^6 splenocytes were again injected via tail vein into male C57BL/6J mice and monitored via flow cytometry as previously described for development of disease as defined by ≥10% CD45+/CD5+/CD19+32. Upon reaching 10% disease, mice were randomly enrolled into one of two treatment arms: tail vein injection of 12.5mg/kg VIP152 dissolved in (30/10/60 v/v/v PEG400/EtOH/0.5% Tween-80 in water) or vehicle control.
# Flow Cytometry analysis of blood […]
# Anti-Mouse CD45R/B220 – cat. […] Data were analyzed using Kaluza Analysis Software (Beckman-Coulter v2.1).
# Mass spectra from all samples (N = 12) were converted to mzML with ProteoWizard and OpenMS (v 2.5.0)30,31. Features from converted files were detected with Biosaur and searched on the OpenMS platform with […]
# GSK3α = GSK3α (Homo sapiens, UniProt P49840); test: HotSpot radiometric kinase assay; format: biochemical; set-up: purchased ReactionBio; conditions: 10-dose series from 0.5 nM to 10 µM; vs dinaciclib, KB-0742, atuveciclib
# Experimental: (§1) We next compared VIP152 to other CDK inhibitors currently in development. […] The compounds were tested in a 10-dose series from 0.5 nM to 10 µM against CDK9 in complex with Cyclin T1/T2/K, CDK7/Cyclin H, and GSK3α/β.
# (§2) Kinomescan Kinase Profiling Assay
# (§3) Kinomescan Assay was performed at DiscoverRX and described in Fabian, et al. 2005, Nat.
# (§4) Biotechnol. In brief, kinases were produced and subsequently tagged with DNA for qPCR detection.
# (§5) Streptavidin-coated magnetic beads were bound to biotinylated kinase ligands to serve as a solid support.
# (§6) VIP152 was dissolved in DMSO and tested across a 10 serial threefold dilution set and compared to a test […]
# (§7) compound and a DMSO control.
# (§8) Kinome map was produced via TreeSpot
# (§9) Analysis from DiscoverRX.
# (§10) HotSpot Kinase Assay Protocol
# (§11) Compounds tested via HotSpot Kinase Assay were sent to ReactionBio for the experiment. The […]
# (§12) Kinase substrate was added to reaction buffer (20 mM Hepes (pH 7.5), 10 mM MgCl2, 1 mM EGTA, 0.01% Brij35, 0.02 mg/ml BSA, 0.1 mM Na3VO4, 2 mM DTT, 1% DMSO). Cofactors and kinases were gently added to the reaction buffer. Compounds to be tested were dissolved in 100% DMSO and were delivered into the kinase reaction mixture by Acoustic technology (Echo550; nanoliter range) and incubated for 20 min at room temperature. […] Kinase activity was detected by P81 filter-binding method. […]
# CDK7/Cyclin H = CDK7/Cyclin H (Homo sapiens, UniProt P50613); test: HotSpot radiometric kinase assay; format: biochemical; set-up: purchased ReactionBio
# Experimental: as §1, §2, §3, §4, §5, §6, §7, §8, §9, §10, §11, §12
# [2] = molecular target: Androgen (Testosterone) AR (Rattus norvegicus, UniProt P15207); test: Eurofins Diversity Panel; format: binding; conditions: Conc. 10 μM
# MLK3 = MLK3 (Homo sapiens, UniProt Q16584); test: KINOMEscan: MLK3; format: binding; conditions: 1000 nM, read-out: Percent Control
# CDKL5 = CDKL5 (Homo sapiens, UniProt O76039); test: KINOMEscan: CDKL5; format: binding; conditions: 1000 nM, read-out: Percent Control
# Chain of CDKL5 (O76039 whole entry): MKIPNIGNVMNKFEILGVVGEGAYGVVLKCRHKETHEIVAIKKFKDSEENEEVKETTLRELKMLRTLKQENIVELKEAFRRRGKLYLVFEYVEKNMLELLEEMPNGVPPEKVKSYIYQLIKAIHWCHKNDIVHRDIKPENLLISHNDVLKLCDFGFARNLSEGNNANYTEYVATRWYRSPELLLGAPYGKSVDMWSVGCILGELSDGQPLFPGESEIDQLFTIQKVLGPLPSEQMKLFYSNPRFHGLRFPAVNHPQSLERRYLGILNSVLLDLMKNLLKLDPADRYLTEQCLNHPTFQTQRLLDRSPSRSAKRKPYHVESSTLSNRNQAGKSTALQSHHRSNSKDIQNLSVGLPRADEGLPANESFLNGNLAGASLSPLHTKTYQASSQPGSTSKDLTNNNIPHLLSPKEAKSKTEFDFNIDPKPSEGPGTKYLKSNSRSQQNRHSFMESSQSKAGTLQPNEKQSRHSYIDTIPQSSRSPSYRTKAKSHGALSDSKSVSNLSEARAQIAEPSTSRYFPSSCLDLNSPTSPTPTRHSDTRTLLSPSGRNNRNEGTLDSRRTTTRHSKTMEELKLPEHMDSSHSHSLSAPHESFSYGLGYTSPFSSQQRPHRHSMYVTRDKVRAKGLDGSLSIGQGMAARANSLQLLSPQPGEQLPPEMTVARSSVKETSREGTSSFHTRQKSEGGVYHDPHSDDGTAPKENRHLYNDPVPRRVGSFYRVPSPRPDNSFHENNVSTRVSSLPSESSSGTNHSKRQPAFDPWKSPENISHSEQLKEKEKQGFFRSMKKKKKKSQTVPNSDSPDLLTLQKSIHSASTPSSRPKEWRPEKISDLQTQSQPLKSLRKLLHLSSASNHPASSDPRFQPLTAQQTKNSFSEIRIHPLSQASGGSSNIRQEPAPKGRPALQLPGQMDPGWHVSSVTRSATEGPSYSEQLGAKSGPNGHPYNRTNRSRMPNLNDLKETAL
# Chain of Androgen (Testosterone) AR (P15207 whole entry S389L): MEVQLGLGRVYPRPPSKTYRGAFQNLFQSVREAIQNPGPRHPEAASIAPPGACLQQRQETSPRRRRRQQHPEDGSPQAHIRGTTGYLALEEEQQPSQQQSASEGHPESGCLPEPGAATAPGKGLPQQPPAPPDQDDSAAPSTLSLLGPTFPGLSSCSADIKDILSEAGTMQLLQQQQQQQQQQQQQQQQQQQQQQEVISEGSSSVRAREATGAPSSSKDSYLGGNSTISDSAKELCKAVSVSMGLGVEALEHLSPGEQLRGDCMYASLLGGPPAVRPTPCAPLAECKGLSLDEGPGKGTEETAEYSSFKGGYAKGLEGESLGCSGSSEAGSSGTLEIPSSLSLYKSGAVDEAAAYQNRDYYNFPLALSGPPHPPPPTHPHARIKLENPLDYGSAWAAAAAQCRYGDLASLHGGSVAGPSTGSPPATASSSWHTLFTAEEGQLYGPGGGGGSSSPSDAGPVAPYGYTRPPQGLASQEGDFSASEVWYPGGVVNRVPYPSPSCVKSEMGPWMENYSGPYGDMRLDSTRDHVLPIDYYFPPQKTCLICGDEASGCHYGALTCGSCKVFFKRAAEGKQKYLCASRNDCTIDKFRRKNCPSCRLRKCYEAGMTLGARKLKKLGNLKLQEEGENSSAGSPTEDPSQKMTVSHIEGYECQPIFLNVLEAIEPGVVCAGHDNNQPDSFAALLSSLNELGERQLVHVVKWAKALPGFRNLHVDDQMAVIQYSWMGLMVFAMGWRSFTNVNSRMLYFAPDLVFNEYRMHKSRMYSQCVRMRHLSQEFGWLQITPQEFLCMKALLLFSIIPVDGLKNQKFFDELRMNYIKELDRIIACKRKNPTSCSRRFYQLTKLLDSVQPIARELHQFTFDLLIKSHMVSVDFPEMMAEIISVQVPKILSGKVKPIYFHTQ
# Chain of GSK3α (P49840 whole entry): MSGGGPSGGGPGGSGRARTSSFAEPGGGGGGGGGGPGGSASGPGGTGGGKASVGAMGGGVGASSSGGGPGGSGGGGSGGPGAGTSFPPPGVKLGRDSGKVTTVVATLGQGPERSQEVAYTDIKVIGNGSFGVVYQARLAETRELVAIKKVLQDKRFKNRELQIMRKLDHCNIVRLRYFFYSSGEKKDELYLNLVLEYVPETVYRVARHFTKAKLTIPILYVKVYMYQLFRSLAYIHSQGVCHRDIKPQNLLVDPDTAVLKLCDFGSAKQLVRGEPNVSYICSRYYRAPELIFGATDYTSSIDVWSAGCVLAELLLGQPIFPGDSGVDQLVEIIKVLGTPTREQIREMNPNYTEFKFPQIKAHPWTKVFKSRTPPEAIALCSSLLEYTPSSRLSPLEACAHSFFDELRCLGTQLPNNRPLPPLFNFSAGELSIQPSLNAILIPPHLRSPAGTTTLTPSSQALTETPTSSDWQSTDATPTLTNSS
# Chain of MLK3 (Q16584 whole entry): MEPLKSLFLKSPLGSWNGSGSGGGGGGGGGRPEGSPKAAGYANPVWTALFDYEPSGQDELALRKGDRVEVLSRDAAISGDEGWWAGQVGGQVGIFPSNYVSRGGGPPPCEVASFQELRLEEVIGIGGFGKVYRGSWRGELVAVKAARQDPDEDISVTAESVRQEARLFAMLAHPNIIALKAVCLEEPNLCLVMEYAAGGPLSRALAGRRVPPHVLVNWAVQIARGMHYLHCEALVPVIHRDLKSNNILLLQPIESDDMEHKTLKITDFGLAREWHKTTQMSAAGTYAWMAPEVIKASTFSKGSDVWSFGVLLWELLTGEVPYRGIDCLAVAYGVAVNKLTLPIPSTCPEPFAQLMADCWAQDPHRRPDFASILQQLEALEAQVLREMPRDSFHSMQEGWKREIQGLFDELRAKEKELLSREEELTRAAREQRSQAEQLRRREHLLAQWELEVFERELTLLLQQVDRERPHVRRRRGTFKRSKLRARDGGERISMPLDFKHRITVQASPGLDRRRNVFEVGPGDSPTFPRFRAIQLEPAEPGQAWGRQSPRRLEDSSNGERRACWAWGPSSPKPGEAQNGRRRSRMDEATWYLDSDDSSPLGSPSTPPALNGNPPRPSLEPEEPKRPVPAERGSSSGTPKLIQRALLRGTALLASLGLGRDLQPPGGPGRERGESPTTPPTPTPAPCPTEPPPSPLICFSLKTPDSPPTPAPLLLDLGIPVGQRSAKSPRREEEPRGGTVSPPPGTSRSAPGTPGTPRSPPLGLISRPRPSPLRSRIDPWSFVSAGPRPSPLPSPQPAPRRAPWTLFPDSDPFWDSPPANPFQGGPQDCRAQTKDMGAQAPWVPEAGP
# Chain of CDK7/Cyclin H (P50613 whole entry): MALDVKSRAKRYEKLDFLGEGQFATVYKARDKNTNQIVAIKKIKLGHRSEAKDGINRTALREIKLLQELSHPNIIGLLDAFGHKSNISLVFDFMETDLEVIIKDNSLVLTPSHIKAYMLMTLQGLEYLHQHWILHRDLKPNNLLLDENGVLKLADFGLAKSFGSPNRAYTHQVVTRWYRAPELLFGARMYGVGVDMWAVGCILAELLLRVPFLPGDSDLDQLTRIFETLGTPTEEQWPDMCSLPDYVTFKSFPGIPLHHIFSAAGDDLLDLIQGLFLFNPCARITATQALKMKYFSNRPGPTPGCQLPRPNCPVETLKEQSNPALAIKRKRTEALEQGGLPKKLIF
# Chain of CDK7/Cyclin H (P51946 whole entry partner): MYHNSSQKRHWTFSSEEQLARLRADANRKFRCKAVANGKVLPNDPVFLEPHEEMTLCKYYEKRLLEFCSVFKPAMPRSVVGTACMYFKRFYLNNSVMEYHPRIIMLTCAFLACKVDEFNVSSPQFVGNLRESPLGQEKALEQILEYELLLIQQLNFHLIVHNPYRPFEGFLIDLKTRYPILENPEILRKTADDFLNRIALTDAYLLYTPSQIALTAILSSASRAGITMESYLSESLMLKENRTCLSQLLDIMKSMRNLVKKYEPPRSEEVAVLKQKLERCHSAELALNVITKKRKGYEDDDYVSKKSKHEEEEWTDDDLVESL
# Chain of CDK7/Cyclin H (P51948 whole entry partner): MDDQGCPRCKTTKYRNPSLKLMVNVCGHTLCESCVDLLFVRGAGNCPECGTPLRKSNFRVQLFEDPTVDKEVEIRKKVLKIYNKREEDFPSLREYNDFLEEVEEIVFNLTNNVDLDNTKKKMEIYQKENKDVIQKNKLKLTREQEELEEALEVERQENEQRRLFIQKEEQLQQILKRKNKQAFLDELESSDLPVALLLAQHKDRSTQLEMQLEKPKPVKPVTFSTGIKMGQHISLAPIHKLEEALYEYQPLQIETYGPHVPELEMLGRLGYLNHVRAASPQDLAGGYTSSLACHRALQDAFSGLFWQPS
smiles,measurement,setting,value
COc1cc(F)ccc1-c1cc(Nc2cc(CS(C)(=N)=O)ccn2)ncc1F (stereo not drawn) [VIP152],weight loss,[1],did not observe any weight loss
same,median survival,[1]; vehicle 32 days,46 days
same,CD5+/CD19+ disease burden in peripheral blood,[1]; vs vehicle,statistically significantly lower
same,spleen size and spleen disease burden at endpoint,[1]; vs vehicle,did not have significantly smaller spleens nor significant decrease in spleen disease burden
same,potency versus the other inhibitors tested,GSK3α,higher potency
same,IC50,CDK7/Cyclin H,> 10 µM
same,inhibition at 10 µM,[2],35%
same,remaining binding at 1 µM,MLK3,87%
same,remaining binding at 1 µM,CDKL5,90%
